{"source": "PubChem BioAssay AID1259408", "about": "(Genetic Toxicology Data Bank (GENE-TOX), 2018)", "test_system": "GENE-TOX genotoxicity assays, various organisms and cells", "test": "GENE-TOX mutagenicity studies", "description": "GENE-TOX provides genetic toxicology (mutagenicity) test data from expert peer review of open scientific literature for more than 3,000 chemicals from the United States Environmental Protection Agency (EPA). GENE-TOX was established to select assay systems for evaluation, review data in the scientific literature, and recommend proper testing protocols and evaluation procedures for these systems.\nGENE-TOX covers the years 1991 - 1998. It is no longer updated.\nThis is an archive assay for GENE-TOX mutagenicity studies.", "key": {"[1]": {"conditions": "Species/Cell Type: Salmonella typhimurium (one or more of the five standard strains: TA98, TA100, TA1535, TA1537, and TA1538), Assay Type: Histidine reverse gene mutation, Ames assay, Assay Code: SAL+, Evaluation Type: Evaluation A (Pre-1980)"}, "[2]": {"conditions": "Species/Cell Type: Salmonella typhimurium (one or more of the five standard strains: TA98, TA100, TA1535, TA1537, and TA1538), Assay Type: Histidine reverse gene mutation, Ames assay, Assay Code: SALT, Evaluation Type: Evaluation A (Pre-1980)"}, "[3]": {"conditions": "Species/Cell Type: Salmonella typhimurium, Assay Type: Forward and reverse gene mutation, host-mediated assay, Assay Code: HMA-, Evaluation Type: Evaluation A (Pre-1980)"}}, "note": "Activity calls are given as the source filed them. How the calls were made is not given here.", "data": [{"smiles": "COC(=O)CCN1CC1", "values": [{"measurement": "mutagenic call", "setting": "Species/Cell Type: Schizosaccharomyces pombe, Assay Type: Reverse gene mutation, Assay Code: YEZ+, Evaluation Type: Evaluation A (Pre-1980)", "value": "active; positive"}]}, {"smiles": "COc1cc([C@@H]2c3cc4c(cc3[C@@H](O[C@@H]3O[C@H](CO)[C@@H](O)[C@H](O)[C@H]3O)[C@H]3COC(=O)[C@H]23)OCO4)cc(OC)c1O", "values": [{"measurement": "mutagenic call", "setting": "Species/Cell Type: Chinese hamster ovary (CHO) cells, Assay Type: Forward gene mutation at the HPRT locus, Assay Code: CHO+, Evaluation Type: Evaluation B (Post-1980)", "value": "active; positive"}]}, {"smiles": "CC1=CC2=C(C=O)C(=O)[C@](C)(O)[C@@H](O)C2=CO1", "values": [{"measurement": "mutagenic call", "setting": "[1]", "value": "active; positive"}]}, {"smiles": "CCCCN(CC(=O)CC)N=O", "values": [{"measurement": "mutagenic call", "setting": "Species/Cell Type: Salmonella typhimurium (one or more of the five standard strains: TA98, TA100, TA1535, TA1537, and TA1538), Assay Type: Histidine reverse gene mutation, Ames assay, Assay Code: SAL+*, Activation: With metabolic activation, Evaluation Type: Evaluation A (Pre-1980)", "value": "active; positive"}]}, {"smiles": "COC(F)(F)C(Cl)Cl", "values": [{"measurement": "mutagenic call", "setting": "Species/Cell Type: Mouse, Sex: Male, Assay Type: Sperm morphology, Assay Code: SPI-, Evaluation Type: Evaluation A (Pre-1980)", "value": "inactive; negative"}, {"measurement": "mutagenic call", "setting": "Species/Cell Type: Nonhuman, Assay Type: Sister-chromatid exchange (SCE) in vitro, Assay Code: SC2T, Evaluation Type: Evaluation B (Post-1980)", "value": "no conclusion"}, {"measurement": "mutagenic call", "setting": "[2]", "value": "no conclusion"}]}, {"smiles": "CC(=O)ON(C)c1ccc(N=Nc2ccccc2)cc1", "values": [{"measurement": "mutagenic call", "setting": "[1]", "value": "active; positive"}]}, {"smiles": "CCN(Cc1ccc(CN(CC)C(=O)C(Cl)Cl)cc1)C(=O)C(Cl)Cl", "values": [{"measurement": "mutagenic call", "setting": "Species/Cell Type: Human, Sex: Male, Assay Type: Sperm morphology, Assay Code: SPH+, Evaluation Type: Evaluation A (Pre-1980)", "value": "active; positive"}]}, {"smiles": "O=C[C@H](NC(=O)N(CCCl)N=O)[C@@H](O)[C@H](O)[C@H](O)CO", "values": [{"measurement": "mutagenic call", "setting": "Species/Cell Type: Chinese hamster lung (V79) cells, Assay Type: Forward gene mutation at the HPRT or ouabain locus, Assay Code: V79+, Evaluation Type: Evaluation A (Pre-1980)", "value": "active; positive"}, {"measurement": "mutagenic call", "setting": "Species/Cell Type: Drosophila melanogaster, Assay Type: Sex-linked recessive lethal gene mutation, Assay Code: SRL+, Evaluation Type: Evaluation A (Pre-1980)", "value": "active; positive"}, {"measurement": "call", "setting": "Species/Cell Type: Nonhuman, Assay Type: In vivo carcinogenicity studies, Assay Code: CCG+L, Evaluation Type: Evaluation A (Pre-1980)", "value": "active; positive"}, {"measurement": "mutagenic call", "setting": "Species/Cell Type: Nonhuman, Assay Type: Sister-chromatid exchange (SCE) in vitro, Assay Code: SC2+D, Dose Response: With dose response, Evaluation Type: Evaluation B (Post-1980)", "value": "active; positive"}, {"measurement": "mutagenic call", "setting": "Species/Cell Type: Saccharomyces cerevisiae, Assay Type: Mitotic recombination or gene conversion, Assay Code: YEC+, Evaluation Type: Evaluation A (Pre-1980)", "value": "active; positive"}]}, {"smiles": "CN1CCN(CCCN2c3ccccc3Sc3ccccc32)CC1", "values": [{"measurement": "mutagenic call", "setting": "Species/Cell Type: Human lymphocytes, Assay Type: Sister-chromatid exchange (SCE) in vitro, Assay Code: SCLT, Evaluation Type: Evaluation B (Post-1980)", "value": "no conclusion"}, {"measurement": "mutagenic call", "setting": "Species/Cell Type: Human, Assay Type: Sister-chromatid exchange (SCE) in vitro, Assay Code: SC1T, Evaluation Type: Evaluation B (Post-1980)", "value": "no conclusion"}]}, {"smiles": "Cc1ncc([N+](=O)[O-])n1C", "values": [{"measurement": "mutagenic call", "setting": "[1]", "value": "active; positive"}]}, {"smiles": "C1CCNC1", "values": [{"measurement": "mutagenic call", "setting": "[3]", "value": "inactive; negative"}]}, {"smiles": "CC(=O)OCN(C)N=O", "values": [{"measurement": "mutagenic call", "setting": "Species/Cell Type: Salmonella typhimurium, Assay Type: Forward and reverse gene mutation, host-mediated assay, Assay Code: HMA+, Evaluation Type: Evaluation A (Pre-1980)", "value": "active; positive"}]}, {"smiles": "[Li+]", "values": [{"measurement": "mutagenic call", "setting": "Species/Cell Type: Bacillus subtilis (H17 vs M45), Assay Type: Rec-assay, spot test, DNA effects (bacterial DNA repair), Assay Code: REW-, Evaluation Type: Evaluation A (Pre-1980)", "value": "inactive; negative"}, {"measurement": "mutagenic call", "setting": "Species/Cell Type: Syrian hamster embryo (SA7/SHE) cells, Assay Type: Cell transformation, viral enhanced, Assay Code: CT7-, Evaluation Type: Evaluation A (Pre-1980)", "value": "inactive; negative"}]}, {"smiles": "CCOS(=O)(=O)c1ccc(C)cc1", "values": [{"measurement": "mutagenic call", "setting": "Species/Cell Type: Escherichia coli polA (W3119 vs P3478), Assay Type: Rec-assay, DNA effects (bacterial DNA repair), Assay Code: RE1+, Evaluation Type: Evaluation A (Pre-1980)", "value": "active; positive"}, {"measurement": "mutagenic call", "setting": "Species/Cell Type: Human diploid fibroblasts, Assay Type: Unscheduled DNA synthesis (UDS) in vitro, DNA effects, Assay Code: UDH+, Evaluation Type: Evaluation A (Pre-1980)", "value": "active; positive"}, {"measurement": "mutagenic call", "setting": "Species/Cell Type: Saccharomyces cerevisiae, Assay Type: Mitotic recombination or gene conversion, Assay Code: YEH+, Evaluation Type: Evaluation A (Pre-1980)", "value": "active; positive"}, {"measurement": "mutagenic call", "setting": "[1]", "value": "active; positive"}, {"measurement": "mutagenic call", "setting": "[3]", "value": "inactive; negative"}, {"measurement": "mutagenic call", "setting": "Species/Cell Type: Syrian hamster embryo (SHE) cells, Assay Type: Cell transformation, clonal assay, Assay Code: CTC+, Evaluation Type: Evaluation A (Pre-1980)", "value": "active; positive"}]}, {"smiles": "O=[N+]([O-])c1cc([N+](=O)[O-])c2ccc3cccc4ccc1c2c43", "values": [{"measurement": "mutagenic call", "setting": "Species/Cell Type: Chinese hamster ovary (CHO) cells, Assay Type: Forward gene mutation at the HPRT locus, Assay Code: CHO+*, Activation: With metabolic activation, Evaluation Type: Evaluation B (Post-1980)", "value": "active; positive"}]}, {"smiles": "CON(C)C(=O)Nc1ccc(Cl)c(Cl)c1", "values": [{"measurement": "mutagenic call", "setting": "Species/Cell Type: Hordeum vulgare (barley), Assay Type: Chromosome aberrations, Assay Code: HOC+, Evaluation Type: Evaluation A (Pre-1980)", "value": "active; positive"}, {"measurement": "mutagenic call", "setting": "[2]", "value": "no conclusion"}, {"measurement": "mutagenic call", "setting": "Species/Cell Type: Vicia faba, Assay Type: Chromosome aberrations, Assay Code: VIC+, Evaluation Type: Evaluation A (Pre-1980)", "value": "active; positive"}]}]}
